For one series, the system named is RAW-Blue cells. Nature of the series: RAW-Blue cells / Quanti-Blue SEAP assay, in vitro immunogenicity (Example 1). On the set-up: dose or concentration left out as unconfirmed. The series is classed as cell-based. The settings on record: 24 h. As to the method:
RAW-Blue cells (InvivoGen) were grown in Dulbecco's Modified Eagle's Medium (DMEM) supplemented with 10% (v/v) heat-sterilized fetal bovine serum (FBS; Atlanta Biologicals) and 1% (v/v) penicillin/streptomycin (p/s; Thermo Fisher Scientific). Normocin ([…]) and zeocin ([…]) were also added according to the supplier's instructions (InvivoGen). CT26 cells obtained from the ATCC were grown in Roswell Park Memorial Institute (RPMI) 1640 medium and DMEM, respectively, each supplemented with 10% (v/v) FBS and 1% (v/v) p/s.
Lipopolysaccharide (LPS; InvivoGen) was used as a positive control. After the incubation, 20 μL of the supernatant was mixed with 180 μL of Quanti-Blue solution (InvivoGen) and incubated at room temperature for 6 h. The absorbance was then measured at 630 nm using a microplate reader (Tecan).

For series [1], the system named is CT26 tumors induced by i.p. inoculation. Nature of the series: CT26 colon cancer i.p. model, i.p. treatment (Example 1). The series is classed as in vivo, BALB/c mice. The following applies: for tumor growth inhibition: i.p. treatment on days 3, 10 and 17, compared to PBS control. As to the method:
(§1) Female BALB/c and C57BL/6 mice (6-7 weeks old) were purchased from the Jackson Laboratory. All animal studies were approved by and conducted according to the regulation of the Institutional Animal Care and Use Committee of the University of California, San Diego. CT26 cells were administered via the intraperitoneal (i.p.) and subcutaneous (s.c.) routes. […] Treatments were administered three times at weekly intervals. The body circumference and weight were recorded for 40 days at 2-day intervals and mice were euthanized when the circumference reached ˜8 cm. To establish the CT26 colon cancer s.c. model, CT26 cells (1.5×10^5 cells in 15 μL PBS) were mixed with 15 μL Matrigel (Corning) and injected s.c. into the left flank of BALB/c mice. […] The tumor volumes, calculated using the equation tumor width^2×tumor length)/2, and body weight were recorded for 40 days at 2-day intervals and mice were euthanized when the tumor volume reached ˜1500 mm^3.

A further series concerns s.c. CT26 tumors. Put plainly: CT26 colon cancer s.c. model, intratumoral treatment (Example 1). The series is classed as in vivo, BALB/c mice. The following applies: i.t. treatment. As to the method: as §1
The subject of series [2] is CT26 tumors induced by i.p. inoculation. The settings on record: reference [17]; cited from earlier work.

With “polyinosinic:polycytidylic acid [poly(I:C)]”, the “SEAP levels versus PBS-treated control” value in the series with RAW-Blue cells was “did not differ significantly”. Besides, in series [1], the tumor growth inhibition entry is on record as “slight inhibitory effect, albeit not statistically significant”. In series [1] (weight gain is due to growth of the tumor), the “body weight of CT26-bearing mice” value is “increased”. Moreover, the “tumor growth by day 26” value with s.c. CT26 tumors turned out to be 30 fold.

`O=C1[O][Pt]2([NH][C@@H]3CCCC[C@H]3[NH]2)[O]C1=O` [oxaliplatin]: the survival rate result in series [1] (compared to mice treated with CCMV or poly(I:C) alone) is given as “slightly increased the survival rate”. In series [1], the tumor growth inhibition result was “significantly inhibited tumor growth”. Also, the tumor volume in the series on s.c. CT26 tumors (day 26) is listed as ~233 mm^3.

Consider ODN1826, for which the “impact on CT26 tumors (previous work)” value in series [2] is reported as “minimal impact”.
